Experimental data reported in patent US9018142B2, “Oil-field biocide method utilizing a peracid” (PeroxyChem LLC, priority 2008, dated 2015).

System: Desulfovibrio desulfuricans (vulgaris) (ATCC 7757)
Experiment: Biocidal efficacy against sulfur-reducing bacteria in 0.1 wt % polyacrylamide (colony population analysis, CFU)
Format: cell-based
Conditions: not a side-by-side comparative study
Description: Example 1 illustrates the biocidal efficacy of peracetic acid, compared with glutaraldehyde, against a strain of sulfur-reducing bacteria, Desulfovibrio desulfuricans (vulgaris), present in an aqueous solution also containing 0.1 wt % polyacrylamide polymer. A range of peracetic acid and glutaraldehyde concentrations were evaluated for biocidal efficacy: 5, 10, 30, 150 and 300 ppm peracetic acid and 25 and 500 ppm glutaraldehyde.
The dilute aqueous polyacrylamide was prepared using a 50 wt % polyacrylamide solution in water, with the polyacrylamide having an average molecular weight ˜10,000 (Aldrich No. 434949, Sigma-Aldrich, St. Louis, Mo.). The peracetic acid was Vigor Ox® SP-15 antimicrobial agent, containing about 15-17 wt % peracetic acid, 9-11 wt % hydrogen peroxide and 33-38 wt % acetic acid in water (FMC Corporation, Philadelphia, Pa.), and this peracetic acid solution was diluted to 5, 10, 30, 150 and 300 ppm peracetic acid for the various evaluations. The glutaraldehyde used in this Example 1 was a 25 wt % glutaraldehyde solution in water (Sigma-Aldrich No. G4004, Sigma-Aldrich, St. Louis, Mo.), diluted to either 25 or 500 ppm for the evaluations. […]
Peracetic acid and glutaraldehyde were next evaluated for biocidal efficacy against the sulfur-reducing bacterium Desulfovibrio vulgaris. […]

Question: Peracetic acid was tested. Which “biocidal efficacy against D. vulgaris compared with the glutaraldehyde treatment” value did it give?
Answer: at least equivalent in performance
